One test has as its target T1, BRD3 BD2 (Homo sapiens, UniProt Q15059).
T1 construct: BRD2 BD2, BRD3 BD2 and BRD4 BD2 (Cisbio); purchased Cisbio
The experiment in a line: Binding assay, BRD3 BD2 to acetylated histone H4 Peptide-Biotin (EPIgeneous Binding Domain Kit B). The conditions noted are these: for inhibition at 0.3 µM: read-out: Binding inhibition percentage BRD3 BD2. The procedure:
(§1) Moreover, BRD2 BD2, BRD3 BD2 and BRD4 BD2 (Cisbio), Peptide-Biotin (AnaSpec), and EPIgeneous (registered trademark) Binding Domain Kit B (Cisbio) were used to carry out an assay. That is, per well, 4 μL of BRD2 BD2, BRD3 BD2 or BRD4 BD2, which was adjusted to 20 nmol/L with Diluent buffer; 4 μL of 250 nmol/L Peptide-Biotin; 2 μL of Dilution buffer (Cisbio) containing DMSO or a test compound that was serially diluted with DMSO; 5 μL of 25 nmol/L Streptavidin-XL665; 5 μL of Anti-Gst-Eu+^3+ Cryptate Conjugate 50-fold diluted with Detection Buffer were added to a 384-well plate (Corning).
(§2) The obtained mixture was left at rest at room temperature for 20 hours, and thereafter, the fluoresence intensity at 665 nm and 620 nm was measured using Envision plate reader (Perkin Elmer), so that the inhibition percentage (%) of the test compound against the binding of a bromodomain in a bromodomain-containing protein to Peptide-Biotin was calculated. Binding inhibition percentage (%)=[1−{(fluorescence intensity at 665 nm of test compound−added well)/(fluorescence intensity at 620 nm of test compound−added well)}/{(fluorescence intensity at 665 nm of DMSO−added well)/(fluorescence intensity at 665 nm of DMSO−added well)}]×100
(§3) Moreover, using Graphpad prism 5 (GraphPad software), 50% inhibitory concentration [IC50 (nmol/L)] was calculated according to a non-linear regression analysis (log (inhibitor) vs. response—Variable slope (four parameters)).
(§4) Regarding other test compounds, each compound was diluted with DMSO to a final concentration of 300 nmol/L by the same method as that described above, and the binding inhibition percentage (%) of each test compound at 300 nmol/L against the binding of bromodomain in a bromodomain-containing protein to acetylated histone was calculated.

Another test addresses T2, BRD2 BD1 (Homo sapiens, UniProt P25440).
T2 construct: BRD2 BD1, BRD3 BD1 and BRD4 BD1 (Cisbio); purchased Cisbio
The experiment in a line: Binding assay, BRD2 BD1 to acetylated histone H4 Peptide-Biotin (EPIgeneous Binding Domain Kit A). The conditions noted are these: for inhibition at 0.3 µM: read-out: Binding inhibition percentage BRD2 BD1. The procedure:
(§5) BRD2 BD1, BRD3 BD1 and BRD4 BD1 (Cisbio), [Lys(Ac)5/8/12/16]-Histone H4(1-25)-GSGSK (Biotin) (hereinafter referred to as “Peptide-Biotin,” AnaSpec), and EPIgeneous (registered trademark) Binding Domain Kit A (Cisbio) were used to carry out an assay. That is to say, per well, 4 μL of BRD2 BD1, BRD3 BD1 or BRD4 BD1, which was adjusted to 20 nmol/L with Diluent buffer; 4 μL of 25 nmol/L Peptide-Biotin; 2 μL of Dilution buffer (Cisbio) containing dimethyl sulfoxide (DMSO) or a test compound that was serially diluted with DMSO; 5 μL of 2.5 nmol/L Streptavidin-d2; and 5 μL of Anti-Gst-Eu+^3+ Cryptate Conjugate 50-fold diluted with Detection Buffer were added to a 384-well plate (Corning).
as §2, §3, §4

The next test addresses T3, BRD3 BD1 (Homo sapiens, UniProt Q15059).
T3 construct: BRD2 BD1, BRD3 BD1 and BRD4 BD1 (Cisbio); purchased Cisbio
The experiment in a line: Binding assay, BRD3 BD1 to acetylated histone H4 Peptide-Biotin (EPIgeneous Binding Domain Kit A). To be noted: for inhibition at 0.3 µM: read-out: Binding inhibition percentage BRD3 BD1. As to the method: as §5, §2, §3, §4

A further test deals with T4, BRD4 BD2 (Homo sapiens, UniProt O60885).
T4 construct: BRD2 BD2, BRD3 BD2 and BRD4 BD2 (Cisbio); purchased Cisbio
The experiment in a line: Binding assay, BRD4 BD2 to acetylated histone H4 Peptide-Biotin (EPIgeneous Binding Domain Kit B). To be noted: for inhibition at 0.3 µM: read-out: Binding inhibition percentage BRD4 BD2. The procedure: as §1, §2, §3, §4

Another test addresses T5, BRD4 BD1 (Homo sapiens, UniProt O60885).
T5 construct: BRD2 BD1, BRD3 BD1 and BRD4 BD1 (Cisbio); purchased Cisbio
The experiment in a line: Binding assay, BRD4 BD1 to acetylated histone H4 Peptide-Biotin (EPIgeneous Binding Domain Kit A). The conditions noted are these: for inhibition at 0.3 µM: read-out: Binding inhibition percentage BRD4 BD1. As to the method:
as §5, §2, §3, §4

A further test has as its target T6, BRD2 BD2 (Homo sapiens, UniProt P25440).
T6 construct: BRD2 BD2, BRD3 BD2 and BRD4 BD2 (Cisbio); purchased Cisbio
The experiment in a line: Binding assay, BRD2 BD2 to acetylated histone H4 Peptide-Biotin (EPIgeneous Binding Domain Kit B). To be noted: for inhibition at 0.3 µM: read-out: Binding inhibition percentage BRD2 BD2. The procedure:
as §1, §2, §3, §4

T1 sequence (Q15059 306-415 limits assumed): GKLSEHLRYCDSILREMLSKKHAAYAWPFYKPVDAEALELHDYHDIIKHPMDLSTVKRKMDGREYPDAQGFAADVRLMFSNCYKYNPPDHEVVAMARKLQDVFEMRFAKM
T3 sequence (Q15059 34-140 limits assumed): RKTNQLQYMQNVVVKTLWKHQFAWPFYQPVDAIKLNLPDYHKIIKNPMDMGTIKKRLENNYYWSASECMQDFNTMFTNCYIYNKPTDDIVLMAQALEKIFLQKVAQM
T6 sequence (P25440 344-453 limits assumed): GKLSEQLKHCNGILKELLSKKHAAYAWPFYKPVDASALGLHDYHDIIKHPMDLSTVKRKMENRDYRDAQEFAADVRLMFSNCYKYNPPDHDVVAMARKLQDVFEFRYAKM
T2 sequence (P25440 74-180 limits assumed): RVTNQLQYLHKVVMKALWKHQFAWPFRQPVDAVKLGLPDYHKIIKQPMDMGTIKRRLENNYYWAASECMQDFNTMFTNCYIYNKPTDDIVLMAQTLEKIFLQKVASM

`CCn1c(=O)cc(N2CCOCC2)c2cc(-n3c(-c4ccccc4)cn(CCN4CCOCC4)c3=O)ccc21` [Example 260]: the inhibition at 0.3 µM was 91% at BRD3 BD2 (test compound at 300 nmol/L); 88% on BRD2 BD1 (test compound at 300 nmol/L); 93% on BRD3 BD1 (test compound at 300 nmol/L); 88% at BRD4 BD2 (test compound at 300 nmol/L); 94% at BRD4 BD1 (test compound at 300 nmol/L); 87% at BRD2 BD2 (test compound at 300 nmol/L).

In the case of `CCn1cc(-c2ccccc2)n(-c2ccc3c(c2)c(N2CCOCC2)cc(=O)n3CC)c1=O` [Example 266, 1-ethyl-6-(3-ethyl-2-oxo-5-phenyl-2,3-dihydro-1H-imidazol-1-yl)-4-(morpholin-4-yl)quinolin-2(1H)-one], the inhibition at 0.3 µM on BRD3 BD2 (test compound at 300 nmol/L) came out at 91%; on BRD2 BD1 (test compound at 300 nmol/L), 91%; at BRD3 BD1 (test compound at 300 nmol/L) it was 94%; at BRD4 BD2 (test compound at 300 nmol/L), 88%; at BRD4 BD1 (test compound at 300 nmol/L), 93%; on BRD2 BD2 (test compound at 300 nmol/L), 90%.

Consider `CCn1c(=O)cc(N2CCOCC2)c2cc(N(C)C(=O)c3ccc(Cl)cc3)ccc21` [Example 250, 4-chloro-N-(1-ethyl-4-(morpholin-4-yl)-2-oxo-1,2-dihydroquinolin-6-yl)-N-methylbenzamide], for which the inhibition at 0.3 µM was 92% on BRD3 BD2 (test compound at 300 nmol/L); 74% on BRD2 BD1 (test compound at 300 nmol/L); 91% on BRD3 BD1 (test compound at 300 nmol/L); 88% at BRD4 BD2 (test compound at 300 nmol/L); 91% at BRD4 BD1 (test compound at 300 nmol/L); 88% on BRD2 BD2 (test compound at 300 nmol/L).

`CCn1c(=O)cc(C2CCN(C(C)=O)CC2)c2cc(C(=O)N(C)c3ccc(C)cc3)ccc21` [Example 290, 4-(1-acetylpiperidin-4-yl)-1-ethyl-N-methyl-N-(4-methylphenyl)-2-oxo-1,2-dihydroquinoline-6-carboxamide]: the IC50 turned out to be 59 nM on BRD3 BD2; 45 nM at BRD2 BD1; 15 nM on BRD3 BD1; 22 nM on BRD4 BD2; 6 nM on BRD4 BD1; 86 nM on BRD2 BD2.

Turning to `CCn1c(=O)cc(C2CC2)c2cc(N(C)C(=O)c3ccccc3)ccc21` [Example 2, N-(4-cyclopropyl-1-ethyl-2-oxo-1,2-dihydroquinolin-6-yl)-N-methylbenzamide], the inhibition at 0.3 µM at BRD3 BD2 (test compound at 300 nmol/L) came to 91%; on BRD2 BD1 (test compound at 300 nmol/L), 52%; at BRD3 BD1 (test compound at 300 nmol/L) it was 85%; on BRD4 BD2 (test compound at 300 nmol/L), 86%; at BRD4 BD1 (test compound at 300 nmol/L) it was 85%; on BRD2 BD2 (test compound at 300 nmol/L), 89%.

`CCn1c(=O)cc(C2CC2)c2cc(-n3c(C)cc(=O)n3-c3ccccc3)ccc21` [Example 282b, 4-Cyclopropyl-1-ethyl-6-(5-methyl-3-oxo-2-phenyl-2,3-dihydro-1H-pyrazol-1-yl)quinolin-2(1H)-one]: the inhibition at 0.3 µM at BRD3 BD2 (test compound at 300 nmol/L) was 92%; on BRD2 BD1 (test compound at 300 nmol/L), 71%; on BRD3 BD1 (test compound at 300 nmol/L), 89%; at BRD4 BD2 (test compound at 300 nmol/L), 87%; at BRD4 BD1 (test compound at 300 nmol/L), 91%; at BRD2 BD2 (test compound at 300 nmol/L), 88%.

With `CCn1c(=O)cc(C2CCN(C)CC2)c2cc(C(=O)N(C)c3ccc(C)c(Cl)c3)ccc21` [Example 293, N-(3-chloro-4-methylphenyl)-1-ethyl-N-methyl-4-(1-methylpiperidin-4-yl)-2-oxo-1,2-dihydroquinoline-6-carboxamide], the inhibition at 0.3 µM on BRD3 BD2 (test compound at 300 nmol/L) worked out at 90%; on BRD2 BD1 (test compound at 300 nmol/L), 94%; on BRD3 BD1 (test compound at 300 nmol/L), 93%; at BRD4 BD2 (test compound at 300 nmol/L), 87%; at BRD4 BD1 (test compound at 300 nmol/L), 94%; on BRD2 BD2 (test compound at 300 nmol/L), 88%.

Consider `CCn1c(=O)cc(C2CC2)c2cc(-n3c(-c4ccc(C(F)(F)F)cc4)cn(C)c3=O)ccc21` [Example 267, 4-cyclopropyl-1-ethyl-6-(3-methyl-2-oxo-5-(4-(trifluoromethyl)phenyl)-2,3-dihydro-1H-imidazol-1-yl)quinolin-2(1H)-one], for which the inhibition at 0.3 µM on BRD3 BD2 (test compound at 300 nmol/L) is 90%; on BRD2 BD1 (test compound at 300 nmol/L) it was 32%; at BRD3 BD1 (test compound at 300 nmol/L) it was 53%; on BRD4 BD2 (test compound at 300 nmol/L) it was 87%; on BRD4 BD1 (test compound at 300 nmol/L), 68%; on BRD2 BD2 (test compound at 300 nmol/L) it was 87%.

Take `CCn1c(=O)cc(N2CCOCC2)c2cc(-n3c(-c4ccccc4)c[nH]c3=O)ccc21` [Example 3, 1-ethyl-4-(morpholin-4-yl)-6-(2-oxo-5-phenyl-2,3-dihydro-1H-imidazol-1-yl)quinolin-2(1H)-one]: the inhibition at 0.3 µM was 91% at BRD3 BD2 (test compound at 300 nmol/L); 91% on BRD2 BD1 (test compound at 300 nmol/L); 94% on BRD3 BD1 (test compound at 300 nmol/L); 89% on BRD4 BD2 (test compound at 300 nmol/L); 94% on BRD4 BD1 (test compound at 300 nmol/L); 89% at BRD2 BD2 (test compound at 300 nmol/L).

Regarding `CCn1c(=O)cc(N2CCOCC2)c2cc(-n3c(-c4ccc(C)cc4)cn(C)c3=O)ccc21` [Example 273, 1-ethyl-6-(3-methyl-5-(4-methylphenyl)-2-oxo-2,3-dihydro-1H-imidazol-1-yl)-4-(morpholin-4-yl)quinolin-2(1H)-one], the inhibition at 0.3 µM turned out to be 93% on BRD3 BD2 (test compound at 300 nmol/L); 93% at BRD2 BD1 (test compound at 300 nmol/L); 94% on BRD3 BD1 (test compound at 300 nmol/L); 89% at BRD4 BD2 (test compound at 300 nmol/L); 94% on BRD4 BD1 (test compound at 300 nmol/L); 90% on BRD2 BD2 (test compound at 300 nmol/L).

With `CCn1c(=O)cc(C2CC2)c2cc(-c3nccnc3-c3ccccc3)ccc21` [Example 284, 4-cyclopropyl-1-ethyl-6-(3-phenylpyrazin-2-yl)quinolin-2(1H)-one], the inhibition at 0.3 µM at BRD3 BD2 (test compound at 300 nmol/L) worked out at 92%; on BRD2 BD1 (test compound at 300 nmol/L) it was 83%; on BRD3 BD1 (test compound at 300 nmol/L), 93%; at BRD4 BD2 (test compound at 300 nmol/L), 89%; at BRD4 BD1 (test compound at 300 nmol/L) it was 93%; on BRD2 BD2 (test compound at 300 nmol/L) it was 88%.

Regarding `CCn1c(=O)cc(C2CCN(C)CC2)c2cc(C(=O)N(C)c3ccc(C)c(C)c3)ccc21` [Example 294, N-(3,4-dimethylphenyl)-1-ethyl-N-methyl-4-(1-methylpiperidin-4-yl)-2-oxo-1,2-dihydroquinoline-6-carboxamide], the inhibition at 0.3 µM is 90% on BRD3 BD2 (test compound at 300 nmol/L); 94% on BRD2 BD1 (test compound at 300 nmol/L); 95% on BRD3 BD1 (test compound at 300 nmol/L); 85% at BRD4 BD2 (test compound at 300 nmol/L); 94% on BRD4 BD1 (test compound at 300 nmol/L); 84% on BRD2 BD2 (test compound at 300 nmol/L).

As for `CCn1c(=O)cc(N2CCOCC2)c2cc(-n3c(-c4ccccc4)cn(CCO)c3=O)ccc21` [Example 262, 1-ethyl-6-(3-(2-hydroxyethyl)-2-oxo-5-phenyl-2,3-dihydro-1H-imidazol-1-yl)-4-(morpholin-4-yl)quinolin-2(1H)-one], the inhibition at 0.3 µM at BRD3 BD2 (test compound at 300 nmol/L) worked out at 92%; on BRD2 BD1 (test compound at 300 nmol/L), 87%; at BRD3 BD1 (test compound at 300 nmol/L), 94%; on BRD4 BD2 (test compound at 300 nmol/L), 88%; on BRD4 BD1 (test compound at 300 nmol/L), 94%; at BRD2 BD2 (test compound at 300 nmol/L), 89%.

For the compound `CCn1c(=O)cc(C2CC2)c2cc(-n3c(=O)cc(C)n3-c3ccccc3)ccc21` [Example 282a, 4-Cyclopropyl-1-ethyl-6-(3-methyl-5-oxo-2-phenyl-2,5-dihydro-1H-pyrazol-1-y 1)quinolin-2(1H)-one], the “Binding inhibition percentage BRD3 BD2” value on BRD3 BD2 (test compound at 300 nmol/L) amounted to 91%. Besides, on BRD2 BD1 (test compound at 300 nmol/L), the “Binding inhibition percentage BRD2 BD1” value was found to be 94%. Also, the “Binding inhibition percentage BRD3 BD1” value at BRD3 BD1 (test compound at 300 nmol/L) was 94%. The “Binding inhibition percentage BRD4 BD2” value on BRD4 BD2 (test compound at 300 nmol/L) was 89%. Besides, the “Binding inhibition percentage BRD4 BD1” value at BRD4 BD1 (test compound at 300 nmol/L) was 95%. Moreover, on BRD2 BD2 (test compound at 300 nmol/L), the “Binding inhibition percentage BRD2 BD2” value stood at 90%.

These data come from patent US10987349B2, “Antitumor agent and bromodomain inhibitor” (FUJIFILM Corporation, priority 2016, dated 2021).
